For 29 compounds, IC50 results are on record in US12331035B2, “Bicyclic compound and use thereof” (SK BIOPHARMACEUTICALS CO., LTD., priority 2019, dated 2025).

pIC50: −log10 of the molar value.

The target in this assay is T1, PRMT5-MEP50 enzyme complex (Homo sapiens, UniProt O14744).
T1 construct: purchased BPS Bioscience (USA) 51045
Briefly: In vitro PRMT5 enzyme activity assay (methylation of histone H4 arginine H4R3, ELISA absorbance at 450 nm). The following applies: S-adenosylmethionine, histone H4 peptide, 2 hours at room temperature, 8 points 10 μM to 0.128 nM. The format is biochemical. In outline:
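Human PRMT5-MEP50 (5 μg/mL working stock) with 2 μM SAM stock on histone H4 (1-20) peptide-coated plates, compound 8-point 1:5 series from 10 μM, 2 h at room temperature. H4R3 methylation detected by antibody/HRP ELISA, absorbance 450 nm; IC50 calculated.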
For orientation: An ELISA detects its analyte on a solid surface through an enzyme-linked reagent.

T1 sequence (O14744 2-637 limits assumed): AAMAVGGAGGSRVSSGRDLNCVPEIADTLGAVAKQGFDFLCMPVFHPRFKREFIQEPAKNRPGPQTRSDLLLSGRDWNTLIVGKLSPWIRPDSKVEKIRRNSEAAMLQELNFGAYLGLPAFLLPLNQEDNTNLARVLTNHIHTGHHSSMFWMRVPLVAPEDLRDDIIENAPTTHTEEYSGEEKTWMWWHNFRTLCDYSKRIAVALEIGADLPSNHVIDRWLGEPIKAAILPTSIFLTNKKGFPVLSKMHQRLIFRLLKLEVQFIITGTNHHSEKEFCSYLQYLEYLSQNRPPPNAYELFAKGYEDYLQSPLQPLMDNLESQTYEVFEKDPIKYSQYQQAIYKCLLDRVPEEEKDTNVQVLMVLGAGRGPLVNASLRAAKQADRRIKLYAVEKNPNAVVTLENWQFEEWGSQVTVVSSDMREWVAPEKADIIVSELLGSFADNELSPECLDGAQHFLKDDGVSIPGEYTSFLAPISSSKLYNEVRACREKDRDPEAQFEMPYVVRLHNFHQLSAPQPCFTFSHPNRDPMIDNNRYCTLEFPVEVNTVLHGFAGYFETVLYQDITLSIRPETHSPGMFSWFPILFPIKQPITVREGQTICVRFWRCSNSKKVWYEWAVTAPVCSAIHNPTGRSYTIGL
T1 sequence (Q9BQA1 2-342 partner limits assumed): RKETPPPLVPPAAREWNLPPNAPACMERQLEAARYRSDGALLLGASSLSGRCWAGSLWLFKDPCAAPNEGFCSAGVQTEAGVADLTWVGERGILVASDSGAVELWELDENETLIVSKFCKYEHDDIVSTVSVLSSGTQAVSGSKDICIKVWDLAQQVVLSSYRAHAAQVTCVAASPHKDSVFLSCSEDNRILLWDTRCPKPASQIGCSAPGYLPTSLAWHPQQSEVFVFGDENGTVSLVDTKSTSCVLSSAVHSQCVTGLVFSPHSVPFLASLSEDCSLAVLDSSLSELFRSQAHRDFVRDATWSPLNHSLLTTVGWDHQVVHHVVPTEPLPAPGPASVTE

What is called pIC50 is the negative decadic logarithm of the IC50, by convention in mol/L. Read a high pIC50 as a low IC50. Compound `O=C1c2ccc(NC3COC3)cc2CCN1C[C@H](O)CN1CCc2ccccc2C1` [Example 51, 2-[(2R)-3-(3,4-dihydro-1H-isoquinolin-2-yl)-2-hydroxy-propyl]-6-(oxetan-3-ylamino)-3,4-dihydroisoquinolin-1-one] showed a negative logarithm of the IC50 (pIC50) of 6.00 to 7.00.

Consider `CC(=O)N1CCN(c2ccc3c(c2)CCN(C[C@H](O)CN2CCc4ccccc4C2)C3=O)CC12CC2` [Example 82, 6-(4-acetyl-4,7-diazaspiro[2.5]octan-7-yl)-2-[(2R)-3-(3,4-dihydro-1H-isoquinolin-2-yl)-2-hydroxy-propyl]-3,4-dihydroisoquinolin-1-one], for which the negative logarithm of the IC50 (pIC50) was 7.00 to 9.00.

With `CC(=O)N1CCC(Oc2ccc3c(c2)CCN(C[C@H](O)CN2CCc4ccccc4C2)C3=O)CC1` [Example 95, 6-[(1-acetyl-4-piperidyl)oxy]-2-[(2R)-3-(3,4-dihydro-1H-isoquinolin-2-yl)-2-hydroxy-propyl]-3,4-dihydroisoquinolin-1-one], the pIC50 is 6.00 to 7.00.

`O=C(Nc1ccc2c(c1)CCN(C[C@H](O)CN1CCc3ccccc3C1)C2=O)c1ccncc1` [Example 27, N-[2-[(2R)-3-(3,4-dihydro-1H-isoquinolin-2-yl)-2-hydroxy-propyl]-1-oxo-3,4-dihydroisoquinolin-6-yl]pyridine-4-carboxamide] had a negative logarithm of the IC50 (pIC50) of 6.00 to 7.00.

For `O=C1c2ccc(N3CCCC(O)C3)cc2CCN1C[C@H](O)CN1CCc2ccccc2C1` (stereo partly drawn) [Example 38, 2-[(2R)-3-(3,4-dihydro-1H-isoquinolin-2-yl)-2-hydroxy-propyl]-6-(3-hydroxy-1-piperidyl)-3,4-dihydroisoquinolin-1-one], the pIC50 was 6.00 to 7.00.

As for `CN(C)C(=O)C1CCN(c2ccc3c(c2)CCN(C[C@H](O)CN2CCc4ccccc4C2)C3=O)CC1` [Example 97, 1-[2-[(2R)-3-(3,4-dihydro-1H-isoquinolin-2-yl)-2-hydroxy-propyl]-1-oxo-3,4-dihydroisoquinolin-6-yl]-N,N-dimethyl-piperidine-4-carboxamide], the pIC50 was 6.00 to 7.00.

Turning to `O=C1c2ccc(NCc3cccnc3)cc2CCN1C[C@H](O)CN1CCc2ccccc2C1` [Example 22, 2-[(2R)-3-(3,4-dihydro-1H-isoquinolin-2-yl)-2-hydroxy-propyl]-6-(3-pyridylmethylamino)-3,4-dihydroisoquinolin-1-one], the negative logarithm of the IC50 (pIC50) was 5.00 to 6.00.

For `CC(=O)N1CCN(c2ccc3c(c2)C2(CC2)CN(C[C@H](O)CN2CCc4ccccc4C2)C3=O)CC1` [Example 105, 6-(4-acetylpiperazin-1-yl)-2-[(2R)-3-(3,4-dihydro-1H-isoquinolin-2-yl)-2-hydroxy-propyl]spiro[3H-isoquinoline-4,1′-cyclopropane]-1-one], the pIC50 was 7.00 to 9.00.

With `O=C1c2ccc(N3CCN(C4CCOC4)CC3)cc2CCN1C[C@H](O)CN1CCc2ccccc2C1` (stereo partly drawn) [Example 127, 2-[(2R)-3-(3,4-dihydro-1H-isoquinolin-2-yl)-2-hydroxy-propyl]-6-(4-tetrahydrofuran-3-ylpiperazin-1-yl)-3,4-dihydroisoquinolin-1-one], the pIC50 was 7.00 to 9.00.

As for `CN(C)C1CCN(c2ccc3c(c2)C(C)(C)CN(C[C@H](O)CN2CCc4ccccc4C2)C3=O)CC1` [Example 111, 2-[(2R)-3-(3,4-dihydro-1H-isoquinolin-2-yl)-2-hydroxy-propyl]-6-[4-(dimethylamino)-1-piperidyl]-4,4-dimethyl-3H-isoquinolin-1-one], the pIC50 is 6.00 to 7.00.

Compound `CC(=O)N1CCN(c2cc(F)c3c(c2)CCN(C[C@H](O)CN2CCc4ccccc4C2)C3=O)CC1` [Example 128, 6-(4-acetylpiperazin-1-yl)-2-[(2R)-3-(3,4-dihydro-1H-isoquinolin-2-yl)-2-hydroxy-propyl]-8-fluoro-3,4-dihydroisoquinolin-1-one] had a pIC50 of 6.00 to 7.00.

`CN(C)C1CCN(c2ccc3c(c2)CCN(C[C@H](O)CN2CCc4ccccc4C2)C3=O)CC1` [Example 110, 2-[(2R)-3-(3,4-dihydro-1H-isoquinolin-2-yl)-2-hydroxy-propyl]-6-[4-(dimethylamino)-1-piperidyl]-3,4-dihydroisoquinolin-1-one]: the pIC50 is 6.00 to 7.00.

`CCN1CCC(COc2ccc3c(c2)CCN(C[C@H](O)CN2CCc4ccccc4C2)C3=O)CC1` [Example 115, 2-[(2R)-3-(3,4-dihydro-1H-isoquinolin-2-yl)-2-hydroxy-propyl]-6-[(1-ethyl-4-piperidyl)methyloxy]-3,4-dihydroisoquinolin-1-one] gave a pIC50 of 6.00 to 7.00.

On to `CCN1CCC(Oc2ccc3c(c2)CCN(C[C@H](O)CN2CCc4ccccc4C2)C3=O)CC1` [Example 114, 2-[(2R)-3-(3,4-dihydro-1H-isoquinolin-2-yl)-2-hydroxy-propyl]-6-[(1-ethyl-4-piperidyl)oxy]-3,4-dihydroisoquinolin-1-one], for which the pIC50 is 6.00 to 7.00.

Regarding `CC(C)N1CCN(c2ccc3c(c2)CCN(C[C@H](O)CN2CCc4ccccc4C2)C3=O)CC1=O` [Example 85, 2-[(2R)-3-(3,4-dihydro-1H-isoquinolin-2-yl)-2-hydroxy-propyl]-6-(4-isopropyl-3-oxo-piperazin-1-yl)-3,4-dihydroisoquinolin-1-one], the pIC50 was 6.00 to 7.00.

`CCN(CC)C1CCN(c2ccc3c(c2)CCN(C[C@H](O)CN2CCc4ccccc4C2)C3=O)CC1` [Example 118, 6-[4-(diethylamino)-1-piperidyl]-2-[(2R)-3-(3,4-dihydro-1H-isoquinolin-2-yl)-2-hydroxy-propyl]-3,4-dihydroisoquinolin-1-one] showed a pIC50 of 6.00 to 7.00.

With `CCN(CC)C1CCN(c2ccc3c(c2)C(C)(C)CN(C[C@H](O)CN2CCc4ccccc4C2)C3=O)CC1` [Example 123, 6-[4-(diethylamino)-1-piperidyl]-2-[(2R)-3-(3,4-dihydro-1H-isoquinolin-2-yl)-2-hydroxy-propyl]-4,4-dimethyl-3H-isoquinolin-1-one], the pIC50 is 6.00 to 7.00.

With `CC(=O)N1CCC(COc2ccc3c(c2)CCN(C[C@H](O)CN2CCc4ccccc4C2)C3=O)CC1` [Example 83, 6-[(1-acetyl-4-piperidyl)methoxy]-2-[(2R)-3-(3,4-dihydro-1H-isoquinolin-2-yl)-2-hydroxy-propyl]-3,4-dihydroisoquinolin-1-one], the pIC50 was 6.00 to 7.00.

Turning to `CN1CCN(c2ccc3c(c2)CCN(C[C@H](O)CN2CCc4ccccc4C2)C3=O)CC1=O` [Example 55, 2-[(2R)-3-(3,4-dihydro-1H-isoquinolin-2-yl)-2-hydroxy-propyl]-6-(4-methyl-3-oxo-piperazin-1-yl)-3,4-dihydroisoquinolin-1-one], the pIC50 was 7.00 to 9.00.

`O=C1c2ccc(N3CCN(C(=O)C(F)(F)F)CC3)cc2CCN1C[C@H](O)CN1CCc2ccccc2C1` [Example 62, 2-[(2R)-3-(3,4-dihydro-1H-isoquinolin-2-yl)-2-hydroxy-propyl]-6-[4-(2,2,2-trifluoroacetyl)piperazin-1-yl]-3,4-dihydroisoquinolin-1-one] showed a pIC50 of 7.00 to 9.00.

In turn, `CC1(C)CN(C[C@H](O)CN2CCc3ccccc3C2)C(=O)c2ccc(N3CCC(N4CCCC4)CC3)cc21` [Example 124, 2-[(2R)-3-(3,4-dihydro-1H-isoquinolin-2-yl)-2-hydroxy-propyl]-4,4-dimethyl-6-(4-pyrrolidin-1-yl-1-piperidyl)-3H-isoquinolin-1-one] gave a pIC50 of 7.00 to 9.00.

For `CC1(C)CN(C[C@H](O)CN2CCc3ccccc3C2)C(=O)c2ccc(N3CCOCC3)cc21` [Example 112, 2-[(2R)-3-(3,4-dihydro-1H-isoquinolin-2-yl)-2-hydroxy-propyl]-4,4-dimethyl-6-morpholino-3H-isoquinolin-1-one], the pIC50 was 6.00 to 7.00.

`O=C(CO)Nc1ccc2c(c1)CCN(C[C@H](O)CN1CCc3ccccc3C1)C2=O` [Example 41, N-[2-[(2R)-3-(3,4-dihydro-1H-isoquinolin-2-yl)-2-hydroxy-propyl]-1-oxo-3,4-dihydroisoquinolin-6-yl]-2-hydroxy-acetamide] had a pIC50 of 7.00 to 9.00.

For `CN1CCN(c2ccc3c(c2)CCN(C[C@H](O)CN2CCc4ccccc4C2)C3=O)CCC1=O` [Example 84, 2-[(2R)-3-(3,4-dihydro-1H-isoquinolin-2-yl)-2-hydroxy-propyl]-6-(4-methyl-5-oxo-1,4-diazepan-1-yl)-3,4-dihydroisoquinolin-1-one], the pIC50 is 6.00 to 7.00.

`CC(=O)N1CCCC(Nc2ccc3c(c2)CCN(C[C@H](O)CN2CCc4ccccc4C2)C3=O)CC1` (stereo partly drawn) [Example 98, 6-[(1-acetylazepan-4-yl)amino]-2-[(2R)-3-(3,4-dihydro-1H-isoquinolin-2-yl)-2-hydroxy-propyl]-3,4-dihydroisoquinolin-1-one]: the negative logarithm of the IC50 (pIC50) is 6.00 to 7.00.

On to `CC(C)(C)OC(=O)N1CC2CC1CN2c1ccc2c(c1)CCN(C[C@H](O)CN1CCc3ccccc3C1)C2=O` (stereo partly drawn) [Example 72, tert-butyl 5-[2-[(2R)-3-(3,4-dihydro-1H-isoquinolin-2-yl)-2-hydroxy-propyl]-1-oxo-3,4-dihydroisoquinolin-6-yl]-2,5-diazabicyclo[2.2.1]heptane-2-carboxylate], for which the pIC50 is 6.00 to 7.00.

`CC(=O)N1CC(Oc2ccc3c(c2)CCN(C[C@H](O)CN2CCc4ccccc4C2)C3=O)C1` [Example 96, 6-(1-acetylazetidin-3-yl)oxy-2-[(2R)-3-(3,4-dihydro-1H-isoquinolin-2-yl)-2-hydroxy-propyl]-3,4-dihydroisoquinolin-1-one]: the negative-log IC50 (pIC50) is 6.00 to 7.00.

Compound `O=C1c2ccc(NCC3CCOCC3)cc2CCN1C[C@H](O)CN1CCc2ccccc2C1` [Example 23, 2-[(2R)-3-(3,4-dihydro-1H-isoquinolin-2-yl)-2-hydroxy-propyl]-6-(tetrahydropyran-4-ylmethylamino)-3,4-dihydroisoquinolin-1-one] had a pIC50 of 7.00 to 9.00.

As to `CN(c1ccc2c(c1)CCN(C[C@H](O)CN1CCc3ccccc3C1)C2=O)C1CCCCC1` [Example 11, 6-[cyclohexyl(methyl)amino]-2-[(2R)-3-(3,4-dihydro-1H-isoquinolin-2-yl)-2-hydroxy-propyl]-3,4-dihydroisoquinolin-1-one], the negative logarithm of the IC50 (pIC50) was 7.00 to 9.00.
